B1: keratinocyte growth factor (KGF) protein (protein, UniProt P21781 32-194, looked up)
Fibroblast growth factor 7: CNDMTPEQMATNVNCSSPERHTRSYDYMEGGDIRVRRLFCRTQWYLRIDKRGKVKGTQEMKNNYNIMEIRTVAVGIVAIKGVESEFYLAMNKEGKLYAKKECNEDCNFKELILENHYNTYASAKWTHNGGEMFVALNQKGIPVRGKKTKKEQKTAHFLPMAIT
notes: recombinant human keratinocyte growth factor

What was measured:
Format in all cases: cell-based, human
[1] = tested on: iAT2s; assay: AGERtdTomato reporter induction in BU3 NGAT iAT2s (flow cytometry, live imaging); conditions: for effect on AGERtdTomato percentage and MFI: media containing L
From the text: FIG. 5A) BU3 NGAT iAT2s were passaged as usual into 3D Matrigel with CK+DCI+RI medium for 3 days. Medium was then kept the same or switched to LATS inhibitor-based media. CK DCI+L, DCI, or L DCI. (C=Chir, K=rhKGF, L=LATS-IN-1; “DCI” as defined in FIG. 2). FIG. 5B) Representative live fluorescence microscopy of iAT2s (BU3 NGAT clone) at 9 days after changing to the indicated medium, either without (FIG. 5B) or with (FIG. 5C) YAP5SA transduction (Scale bars=500 um in B; 50 um in FIG. 5C). FIG. 5D) Representative flow cytometry plots of NKX2-1GFP and AGERtdTomato 9 days post after changing to cach indicate medium. FIG. 5E) Cell counts and flow cytometry quantification of AGER tdTomato+ percentage and Mean Fluorescence Intensity (MFI) 9 days post medium change. One way ANOVA, N=3 per condition. FIG. 5F) Gene expression of AT1 and AT2 markers by whole well RT-qPCR. (1 way ANOVA, N=3 per condition). FIG. 5G) Whole mount immunofluorescence microscopy of BU3 NGAT organoids in L+DCI. Scale bar=50 um. FIG. 5H) Primary adult human AT2 cells (1° AT2s) were cultured as described 5 and 7 days post plating, medium was changed to published, human-serum containing Alveolar Differentiation Media (ADM) or L+DCI. Whole well RT-qPCR of selected genes 7 days post medium change. 1 way ANOVA, N=3 per condition. FIG. 5I) Experimental schematic: BU3 NGAT iAT1s were grown in L+DCI for 10 days, sorted on AGERtdTomato, and then plated in 3D Matrigel in either L+DCI or CK+DCI. Outgrowths of sorted cells were analyzed after an additional 9 days. FIG. 5J) Representative flow cytometry plots of AGERtdTomato+ outgrowth from (FIG. 5I). FIG. 5K) Quantification of indicated fluorescence (FACS), cell counts, or transcript expression (FIG. 5LL; whole well RT-qPCR) of cells from (FIG. 5I). Control sorted iAT1s in L are freshly sorted AGERtdTomato+ cells after 9 days in L+DCI. (N=3 per condition; K=Student's t test; L=1 way ANOVA). *p<0.05, **p<0.01, ***p<0.001, and […] for all panels.
(§1) iPSCs were first differentiated into iAT2s and passaged as above in 3D cultures in iAT2 medium (CK+DCI) supplemented for the first 3 days after passaging with 10 uM Y-27632 (Tocris). To generate iAT1s, 3 days after passaging iAT2s in 3D, the medium was replaced with “L+DCI”, consisting of [10 uM LATS-IN-1 (“L”; MedChemExpress Cat. No.: HY-138489), 50 nM dexamethasone (“D”; Sigma-Aldrich), 0.1 mM 8-bromoadenosine 3′,5′cyclic monophosphate sodium salt (Sigma-Aldrich; “C”), and 0.1 mM 3-isobutyl-1-methylxanthine (IBMX; Sigma-Aldrich; “I”)]. Cells were cultured up to 16 days in L+DCI in 3D while monitoring AGERtdTomatoexpression as detailed in the text.
0.05% trypsin was used to generate single cell suspensions which were resuspended in sort buffer [HBSS (ThermoFisher) with 2% FBS, 10 uM Y-27632 (Tocris)] with Live/dead stain [Calcein blue (Life technologies) or DRAQ7 (Abcam)]. Cells were sorted based on reporter expression: NKX2-1GFP and AGERtdTomatofor BU3 NGAT, or SFTPCtdTomatofor SPC2B2, as indicated in the text. Cell sorting was performed on a Moflo Astrios EQ (Beckman Coulter) and flow cytometry analysis was performed on an LSRII SORP (BD Biosciences) at the Boston University Flow Cytometry Core Facility. For Edu assays, the Click-iT Plus EdU Alexa Fluor 647 Flow Cytometry Assay Kit (Thermo Fisher Scientific) was used with EdU added 24 hours before cell isolation, and cells fixed in 4% paraformaldehyde (PFA) were analyzed on a Stratedigm (S1000EXI) cytometer with post-processing using Flow Jo software (BD Biosciences). For all other analyses, live non-fixed cells were sorted or analyzed as indicated in the text.

[2] = tested on: iAT2s; assay: Withdrawal of Chir or KGF in YAP5SA-transduced BU3 NGAT iAT2s; conditions: YAP5SA differentiation model
From the text: FIG. 13A) BU3 NGAT iAT2s were passaged into 3D Matrigel in CK+DCI for 3 days, and then media was switched to media containing LATS-IN-1 and either Chir or KGF and grown for a further 11 days. Representative flow cytometry of NKX2-1GFPand AGERtdTomato. FIG. 13B) Quantification of AGERtdTomatocompared to CK DCI+L and DCI+L quantification in FIGS. 5A-5L. (N=3 per condition, 1 way ANOVA). FIG. 13C) BU3 NGAT iAT2s were transduced with either WT YAP or YAP5SA lentivirus in suspension with polybrene for 4 hours and then replated into 3D Matrigel in CK DCI. After 5 days, media was changed to withdraw one or both growth factors from the media. Cells were analyzed 11 days post media change. FIG. 13D) Cell counts of WT YAP and YAP5SA transduced cells in different medias (2 way ANOVA). First series is CK+DCI, second series is C+DCI, third series is K+DCI, fourth series is DCI. FIG. 13E) Representative flow cytometry of NKX2-1GFP and AGERtdTomato. FIG. 13F) Quantification of AGERtdTomatopercentage and Mean Fluorescence Intensity following YAP5SA transduction. (2 way ANOVA). First series is CK+DCI, second series is C+DCI, third series is K+DCI, fourth series is DCI. FIGS. 13G-13H) Gene expression of AT1 markers, YAP downstream targets, and AT2 markers by whole well RT-qPCR. (N=3, 2 way ANOVA). First series is CK+DCI, second series is C+DCI, third series is K+DCI, fourth series is DCI. […]

[3] = tested on: iAT2s; assay: Whole well RT-qPCR of AT1/AT2 markers in iAT2s in LATS inhibitor media
Protocol: as §1
For RT-qPCR, whole well or sorted cells were collected and stored in Qiazol (Qiagen, 79306) prior to RNA isolation using RNeasy Plus Mini Kit according to the manufacturer's protocol (Qiagen, 74104), cDNA was then synthesized using MultiScribe™ Reverse Transcriptase (ThermoFisher 4311235). A QuantStudio instrument (Applied Biosciences) and predesigned Taqman probes were used and run in a 384-well format for 40 cycles. Relative expression was normalized to an 18S control and fold change over control cells was calculated using 2-ΔΔCt. Where indicated in the text, RNA extracts from adult primary human distal lung tissue explants, the kind gift of Barry Stripp (Cedars Sinai, Los Angeles) were employed as RT-qPCR controls. RNA was isolated via RNeasy Plus Mini Kit following manufacturer's protocol.

Molecule	effect on AGERtdTomato percentage and MFI [1]	effect on AGERtdTomato and AT1 markers by bulk RT-qPCR [2]	AGERtdTomato induction, % of the NKX2-1GFP+ cells ([1]; BU3 NGAT iAT2s in L+DCI, increasing over the following 2 weeks) [%]	time to detectable AGERtdTomato induction in the NKX2-1+ population ([1]; L supplementation of iAT2s) [h]	time to morphologic changes resembling YAP5SA-transduced cells ([1]; L supplementation of iAT2s) [hours]	iAT2s in which the AT1 program is driven ([1]; complete serum free defined media containing LATS inhibitor)	dose yielding greatest frequency and brightness (MFI) of NKX2-1GFP/AGERtdTomato+ cells ([1]; dose response testing, medium replaced day 3 after passaging, 2 weeks post passage) [µM]	NKX2-1 expression ([3]; iAT2 media vs medias containing LATS-IN-1)	SFTPC expression ([3]; medias containing LATS-IN-1)	AGER, CAV1, PDPN, and CLIC5 expression ([3]; whole well RT-qPCR, wells containing the LATS inhibitor)
Cc1c[nH]c(-c2cnc(NCCNc3ccc(C#N)cn3)nc2-c2ccc(Cl)cc2Cl)n1 [Chir, CHIR99021]	significantly inhibitory	inhibitory effects								
O=C(N=c1sccn1Cc1ccccc1)c1c[nH]c2ncccc12 [LATS-IN-1, N-(3-benzylthiazol-2(3H)-ylidene)-1H-pyrrolo[2,3-b]pyridine-3-carboxamide]			84.97±1.23	≤ 72	≤ 48	up to 97%	10	unchanged	decreased	significantly upregulated
B1	significantly inhibitory	inhibitory effects								
